Key:
[1] = tested on: intraocular pressure (IOP) in normotensive monkeys; experiment: Multidose study: twice-daily topical Compound A suspension with once daily topical latanoprost, IOP in conscious monkeys; assay type: in vivo, cynomolgus monkeys (Macaca fascicularis)
Method: Ten female, ocular normotensive cynomolgus monkeys (Macaca fascicularis), aged 3 to 4 years old at initiation of treatment, were acclimated to ocular topical dosing and repeated IOP measurements using a pneumatonometer (Model 30 Classic) without general anesthesia or sedation (conscious) and dosed as indicated in Table 1.
Intraocular pressure was measured from both eyes (three readings/eye/time interval with mean values represented in the data tables) beginning approximately 1 hour predose, at Time 0 (just prior to dosing), and after dosing at various time intervals. Mean IOP values and the percent change in IOP levels from the baseline level were calculated. The FIGS. 5 and 6 show summarized data from this phase of the study of the combined IOP mean values of treatments and standard deviation of the mean for the control. The control plot includes the combined mean values of all treatments (BSS alone and BSS in combination with Placebo). The mean IOP levels in the control eye ranged from 21 to 22 mmHg.

[2] = tested on: intraocular pressure (IOP) in normotensive monkeys; experiment: IOP after single topical ocular dosing of Compound A with or after latanoprost in conscious normotensive monkeys (Treatments 1-5); assay type: in vivo, cynomolgus monkeys (Macaca fascicularis); details: pre-clinical studies
Method: Compound A was administered in two different formulations: […]
The aqueous formulation comprised of the following: […]
The control in the first treatment was a 40 mcL composition of 0.8% sodium chloride (NaCl), 0.15% citrate, 0.01% benzalkonium chloride, 0.3% polysorbate 80, and 0.7% sodium (Na) carboxymethylcellulose.
In the third treatment, 10 monkeys received latanoprost (Xalatan™) dosed via 2 drops at 15 mcL apart (at a concentration of 50 mcg/mL) for a total dose of 1.5 mcg in one study eye and 2 drops of saline vehicle in the contralateral eye. This treatment was performed at two separate times with a sufficient washout between treatments. The IOPs of both the study eye and contralateral eye were measured repeatedly using a calibrated pneumotonometer following an application of a topical anesthetic (proparacaine).
In the fourth treatment, 10 monkeys received latanoprost (Xalatan™) topically dosed via 2 drops at 15 mcL apart (at a concentration of 50 mcg/mL) for a total dose of 1.5 mcg in one study eye and saline in the contralateral eye. […] The intraocular pressures (IOP) of both the study eye and contralateral eye were measured repeatedly using a calibrated pneumotonometer following an application of a topical anesthetic (proparacaine). […]

[3] = Compound A 65 μg/dose BID plus latanoprost 1.5 μg QD, right eye

SMILES: CC(C)OC(=O)CCC/C=C\C[C@@H]1[C@@H](CC[C@@H](O)CCc2ccccc2)[C@H](O)C[C@@H]1O [latanoprost, isopropyl-(Z)-7[(1R,2R,3R,5S)3,5-dihydroxy-2-[(3R)-3-hydroxy-5-phenylpentyl]cyclopentyl]-5-heptenoate, reference compound]
- reduction from the mean IOP baseline levels ([1]; latanoprost alone 1.5 μg/dose once daily topical, right eye, at peak trough): approximately 13%
- reduction of mean IOP levels at peak trough ([1]; latanoprost alone 1.5 μg/dose once daily topical, right eye, repeated dosing, n=10): about 2 mm Hg
- IOP of treated eyes versus control eyes ([1]; latanoprost alone, after repeated treatments for two weeks, including pre-dose times): slightly lower than that of the control eyes

SMILES: O=[N+]([O-])OC[C@H]1O[C@@H](n2cnc3c(NC4CCCC4)ncnc32)[C@H](O)[C@@H]1O [Compound A, ((2R,3S,4R,5R)-5-(6-(cyclopentylamino)-9H-purin-9-yl)-3,4-dihydroxytetrahydrofuran-2-yl)methyl nitrate]
- reduction in IOP compared with latanoprost alone ([1]; Compound A 65 μg/dose BID (130 μg/day) suspension plus latanoprost 1.5 μg QD, right eye, 1 hour after each Compound A dose (Time 0 and 5 hours)): greater reduction in IOP
- IOP reduction at peak trough after the first daily dose [1, 3]: approximately 12%
- IOP reduction at peak trough after the second daily dose [1, 3]: ~17%
- IOP reduction by the combination of Compound A and latanoprost [2]: significant IOP reduction

Source: patent US8877732B2, “Combination, kit and method of reducing intraocular pressure” (Inotek Pharmaceuticals Corporation, priority 2010, dated 2014)
